A melting point compilation (Tetko et al.; mined from patent text by program, amines drawn as free bases though some values may be those of a salt)

Row | Structure (SMILES) | melting point [°C]
1 | COc1ccc2c(c1)[C@@H](O)[C@H](CN1CCC3(CC1)C(=O)NCN3c1ccccc1)CC2 (relative stereo) | 216 to 218
2 | CN(C)n1cn[nH]c1=O | 127
3 | CCNc1cc2ccc(OC)c(OC)c2c2cc(C)ccc12 | 100 to 102
4 | CC(C)C(=O)NC[C@@H]1CN2C(=O)C[C@H]2O1 (racemic) | 76 to 77
5 | COC(=O)c1nc2c(c(-c3ccccc3)nn2-c2ccccc2)c(N)c1C(=S)OC | 160 to 161
6 | O=c1ccc(S(=O)(=O)n2cc(Cl)c3ccccc32)n[nH]1 | > 220
7 | CS(=O)(=O)NC(=O)Cc1ccc2c(c1)Nc1nccnc1S2 | 236 to 238
8 | CCOC(=O)C1(NS(=O)(=O)c2ccc3c(Cl)cnc(NC(=N)N)c3c2)CCCC1 | 225 to 226
9 | CCNC(=O)CCCNC(=O)CCCNC(=O)CCCNC(=O)OC(C)(C)C | 170 to 171
10 | Cc1nnc(Cl)c2cc(O)ccc12 | > 260
11 | CC1(C)CC(=O)C(C(=O)Nc2ccc(Cl)c(C(F)(F)F)c2)C(=O)O1 (configuration not stated) | 156
12 | Cc1ccc(-c2ccc3c(c2)C=C(C(CN(C)C2CCOCC2)Oc2ccccc2)CCO3)cc1 (configuration not stated) | 135 to 136
13 | Nc1nc(-c2ccco2)c(C(=O)c2ccccn2)s1 | 206 to 207
14 | COC[C@@H](C)N1Cc2c(ccc(Cl)c2NC(=O)c2ccc(F)c(C(F)(F)F)c2)C1=O | 131 to 132
15 | CCNC(=S)NS(=O)(=O)c1cc2c(cc1OC)OCCC2CNC(=O)c1cc(F)ccc1OC (configuration not stated) | 207
16 | COc1ccc(OC)c(CC(=O)c2c(O)c3cccnc3n(-c3ccccc3)c2=O)c1 | 159 to 161
17 | COc1cc2c(cc1OC)C1c3ccccc3CCN1C2 (configuration not stated) | 186
18 | COCc1nc2nccnc2c(=O)n1C | 130 to 132
19 | CC[Si](CC)(CC)c1cccc(-c2ccccc2)c1O | 44 to 46
20 | O=C1C(=O)N(Cc2ccc(Br)cc2F)c2c1cccc2C(F)(F)F | 141 to 143
21 | CC(C)=CCc1c(O)n2c3c(nc2n(Cc2ccccc2)c1=O)N(C)CN(C)C3=O | 153 to 154
22 | CC#COc1cccc2oc3ccccc3c(=O)c12 | 168 to 169
23 | CCOC(=O)C1=C(C)Nc2nc(N(C)C)nc(N)c2C1c1ccccc1C(F)(F)F (configuration not stated) | 210
24 | CC1(C)Oc2ccc(Br)cc2C(Oc2ccnc(O)c2)C1(C)O (configuration not stated) | 251 to 252

Row | Structure (SMILES) | melting point [°C]
25 | C=CCOc1cc(O)c(C#N)c(Cl)c1 | 175 to 176
26 | CNC(=S)C1(c2cccnc2)CCCCS1=O (configuration not stated) | 228
27 | CCOC(=O)N1CCC(c2ccc(COc3ccc(S(C)(=O)=O)cc3)nc2)CC1 | 119 to 121
28 | Nc1nccnc1C(=O)NCCc1ncc[nH]1 | 204 to 208
29 | CCCCc1nc2cccc(C(=O)O)c2n1Cc1ccn2c(C(=O)O)c(-c3ccccc3)nc2c1 | 202 to 204
30 | CCOC(=O)c1cn(Cc2ccccc2OC)c2sc(-c3ccc(NC(C)=O)cc3)c(CN(C)Cc3ccccc3)c2c1=O | 161 to 163
31 | Cc1cn2c(N)c(Cl)cc(C(=O)NCC3CCN(CC(=O)C(C)(C)C)CC3)c2n1 | 198
32 | CCCS(=O)(=O)N(c1cc(Cl)ccc1C(=O)OC)S(=O)(=O)CCC | 156 to 158
33 | CCc1c2c(nc3ccccc13)-c1cc3c(c(=O)n1C2)COC(=O)CC3(O)CC (configuration not stated) | > 280
34 | CN(N=Cc1ccc(Br)cc1)C(=O)c1[nH]c2ccccc2c1-c1ccccc1 | 210 to 212
35 | Cc1ccc2cccc3c2c1N(Cc1ccccc1)C3=NCCCn1ccnc1 | 107 to 109
36 | COCC1CN(c2ccc(C3CCC(CCNC(C)=O)CC3)cc2)C(=O)O1 (racemic) | 120 to 122
37 | O=c1c(CCCCO)c(O)c2cccnc2n1-c1ccccc1 | 206
38 | COC(=O)c1ccc(OC)c(NC(=N)c2ccc(F)cc2)c1 | 120
39 | CC(CCCl)C(=O)Nc1scc(C(C)(C)C)c1C#N (configuration not stated) | 115 to 116
40 | O=c1nc(N2CCc3ccccc32)sc2ncccc12 | 249 to 250
41 | CCCCCN1C(=O)C2(COc3cc4c(cc32)OCCO4)c2ccccc21 (configuration not stated) | 111 to 113
42 | CC(=O)NC[C@H]1CN(c2ccc(-n3nccc3-c3ccc(Br)cc3)c(F)c2)C(=O)O1 | 96.8 to 98.8
43 | CS(=O)(=O)N1C(=O)C2(COc3cc4c(cc32)OCO4)c2ccccc21 (configuration not stated) | 215 to 217
44 | COc1cccc2c1OCN(CCc1ccccc1Cl)C2 | 79 to 81
45 | CCOC(=O)CSc1n[nH]c(=S)[nH]1 | 134 to 136
46 | O=S(=O)(c1ccccc1)c1c[nH]c2ccncc12 | 261 to 263
47 | O=C(O)CCCCCCCCCCCCCCCOCc1ccccc1 | 56 to 59
48 | O=Cc1ncc2n1-c1ccc(Cl)cc1C(c1ccccc1F)=NC2 | 182 to 183

Row | Structure (SMILES) | melting point [°C]
49 | CC(C)Cn1c(C(=O)O)c(OCCCC(F)(F)F)c2cc(OCc3ccccc3)ccc2c1=O | 130 to 131
50 | C=C(C)Cn1c(=O)n(C)c(=O)c2c(SCCO)n(Cc3cccc4ccccc34)nc21 | 135 to 137
51 | COc1ccc(N2CCN(Cc3ccc(Nc4ccnc5cc(C(F)(F)F)ccc45)cc3)CC2)cc1 | 235 to 237
52 | Cc1cc(Oc2cccc(C(F)(F)F)c2)nn1C(=O)Nc1ccccc1 | 53 to 54
53 | Cc1nc2cc3c(cc2c(=O)[nH]1)CCC3 | 284
54 | CC(C)(C)c1ccc(C(=O)Nc2cc(OCCCO/N=C/c3cn(Cc4ccccc4)c4ccccc34)ccc2C(=O)O)cc1 | 181 to 182
55 | OC1CSC(Oc2cnc(-c3cccnc3)c(F)c2)C(O)C1O (configuration not stated) | 179
56 | CCC(=O)c1ccc2c(c1)C1(CC1)C(=O)N2 | 183 to 185
57 | COc1ccc(CN2C(=O)N([C@H](C)c3ccccc3)[C@H]3COC(=O)[C@H]32)cc1 | 146
58 | CS(=O)(=O)Nc1cc([N+](=O)[O-])ccc1Oc1ccccc1 | 112 to 114
59 | O=C(O)c1csc(C(F)F)c1 | 131 to 132
60 | CSc1nc(Cl)cc2nncn12 | 164 to 165
61 | CC(=O)OCc1nc([N+](=O)[O-])c(Br)n1C | 92 to 97
62 | CCCS(=O)(=O)NCC(O)(Cn1cncn1)c1ccc(Cl)cc1Cl (configuration not stated) | 128 to 129
63 | Nc1nc(Nc2cccnc2)sc1C(=O)c1ccc(Cl)cc1Cl | 209 to 210
64 | CCOc1nc2cccc(C(=O)OC)c2n1Cc1ccc(-c2ccccc2-c2nc(=O)o[nH]2)cc1 | 186 to 187
65 | CCOC(=O)C(=O)Nc1cc(Cl)ccc1[N+](=O)[O-] | 103 to 104
66 | Cc1[nH]c2cc3c(cc2c1-c1ccccc1)C(C)(C)C=N3 | 233 to 235
67 | O=C1c2ccc(Cl)cc2C(=O)N1c1ccc([N+](=O)[O-])cc1CI | 183 to 187
68 | COC(=O)c1ccc(O)c(C(=O)CC(=O)c2cc(C)ccc2OC(C)C)c1 | 85 to 86
69 | CC(C(=O)O)c1ccc(C(=O)c2ccc(Cl)s2)cc1 (configuration not stated) | 137
70 | COc1cc(C=O)ccc1OCc1csc(N2CCCCC2)n1 | 129 to 130
71 | Cc1ccc(S(=O)(=O)N2CCC(C#N)(c3ccc(Cl)cc3Cl)CC2)cc1 | 145
72 | COCCc1nc2c(N)nc3ccccc3c2n1CCCCCCCCNS(=O)(=O)c1ccccc1 | 146 to 149
